# From US20250041282A1, “METHOD FOR TREATING INFLAMMATORY PULMONARY DISEASE” (FU JEN CATHOLIC UNIVERSITY, priority 2021, published 2025)
# Legend:
# RAW264.7 macrophages = assay: ELISA of cytokines in cell culture media; assay type: cell-based, mouse
# Procedure: (§1) RANTES (RayBiotech), IL-1β and IL-6 (eBioscience, San Diego, CA, USA) concentrations in cell culture media and mouse serum were measured using ELISA kits according to the manufacturer's instructions. The plates were measured at […] using an Epoch microplate spectrophotometer (BioTek Instruments, Winooski, VT, USA). The concentrations of RANTES, IL-1β and IL-6 in the samples were determined by standard curves.
# For identifying the potential signaling pathways which regulate the secretion of IL-6 and RANTES induced by LPS stimulation, RAW264.7 macrophages were pretreated with various kinase inhibitors for 30 min and then stimulated with/without 100 ng/ml LPS for 24 h; the cell culture media was harvested for ELISA assay. […] (FIG. 6A). To investigate whether FJU-C28 could mediate the transcriptional activity of NF-κB (p65), the translocation of NF-κB p65 was examined in LPS-stimulated macrophages.
# [1] = test system: C57BL/6 mice with LPS-induced systemic inflammation; assay: Serum cytokines by ELISA in mice with LPS-induced systemic inflammation; assay type: in vivo, mouse; details: FJU-C28 5 mg/kg, LPS 7.5 mg/kg; FIG. 12B
# Procedure: as §1
# Ten-week-old male C57BL/6 mice from BioLasco Taiwan Co., Ltd. (Taipei, Taiwan) were used in the present study. […] The detailed procedure was performed as described in a previous study.^34 The lung function values, including C chord (lung compliance), IC (inspiratory capacity), VC (vital capacity), FEV100 (forced expiratory volume at 100 ms) and FVC (forced vital capacity), were measured using a Buxco Research System. […]
# To evaluate the protective effect of FJU-C28 on lung function in mice with systemic inflammation induced by endotoxin, male C57BL/6 mice were administered LPS (7.5 mg/kg) and treated with/without FJU-C28 (5 mg/kg) for 24 hours; subsequently, lung function parameters were measured using a Buxco pulmonary function test system. […] To ascertain the correlation between target cytokines and lung injury, serum cytokines were measured by ELISA.
# [2] = LPS-treated macrophages, cell culture media, FIG. 4C/4D
smiles,measurement,setting,value
C=CCC1CC(Sc2ccccc2)=CC(=O)N1C(=O)C=C (centres unmarked) [FJU-C28],production of IL-1β (ELISA),RAW264.7 macrophages; [2],dramatically reduced
same,production of IL-6 (ELISA),RAW264.7 macrophages; [2],dramatically reduced
same,LPS-induced expression of RANTES (ELISA),"RAW264.7 macrophages; at 6 hours or 24 hours, FIG. 4A",dramatically suppressed
same,circulating (serum) level of IL-6,[1],significantly suppressed
same,circulating (serum) level of RANTES,[1],significantly suppressed
